Source: publication PMC4823724 (Scientific Reports, 2016)

Key:
RpfG [1] = tested on: RpfG
RpfG [2] = tested on: RpfG; remark: listed apart in the source

RpfG, sequence (G7TEN6 1-378): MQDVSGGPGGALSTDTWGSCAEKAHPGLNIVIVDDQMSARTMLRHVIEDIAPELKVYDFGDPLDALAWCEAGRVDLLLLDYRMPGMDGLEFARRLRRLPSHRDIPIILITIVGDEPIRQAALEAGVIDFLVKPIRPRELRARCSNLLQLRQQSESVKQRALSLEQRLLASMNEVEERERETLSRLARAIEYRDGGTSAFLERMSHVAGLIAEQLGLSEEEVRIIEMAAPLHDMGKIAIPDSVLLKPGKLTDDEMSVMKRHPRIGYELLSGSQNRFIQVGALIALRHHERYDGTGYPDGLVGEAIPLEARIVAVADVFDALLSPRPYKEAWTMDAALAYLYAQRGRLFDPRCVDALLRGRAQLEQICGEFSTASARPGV

Row | Structure (SMILES) | HPLC phosphodiesterase assay (RpfG [1]) | colorimetric phosphodiesterase assay at 410 nm (RpfG [2])
1 | Nc1nc2c(ncn2[C@@H]2O[C@@H]3COP(=O)(O)O[C@H]4[C@@H](O)[C@H](n5cnc6c(=O)[nH]c(N)nc65)O[C@@H]4COP(=O)(O)O[C@H]3[C@H]2O)c(=O)[nH]1 [c-di-GMP] | degraded product pGpG was produced when RpfG was incubated with c-di-GMP | 
2 | O=[N+]([O-])c1ccc(OP(=O)(O)Oc2ccc([N+](=O)[O-])cc2)cc1 [bis(p-nitrophenyl) phosphate] |  | RpfG efficiently converted bis(p-nitrophenyl) phosphate into p-nitrophenol
